Results from ChEMBL document CHEMBL3865792, “Antioxidant and antitumor activity of trolox, trolox succinate, and α-tocopheryl succinate conjugates with nitroxides” (Eur J Med Chem, 2016).

System: not listed separately
Experiment: Ratio of IC50 for human U937 cells to concentration causing antioxidant activity in Salmonella typhimurium TA102 harboring […] mutant
Format: functional, U-937
Conditions: not given

SMILES	Ratio
CC1(C)CC(CNC(=O)CCC(=O)O)C(C)(C)N1[O] (stereo not drawn)	100 - 1000
Cc1c(C)c2c(c(C)c1OC(=O)CCC(=O)NC1CC(C)(C)N([O])C(C)(C)C1)CC[C@@](C)(CCC[C@H](C)CCC[C@H](C)CCCC(C)C)O2	100 - 1000

System: not listed separately
Experiment: Cytotoxicity against hamster AG17-1 cells assessed as reduction in cell viability at 300 uM after 72 hrs by MTT assay
Format: toxicity, cell-based, Cricetulus griseus
Conditions: Chinese hamster, read-out: INH

SMILES	cytotoxicity at 72 h, 300 µM
CC1(C)CC(CNC(=O)CCC(=O)O)C(C)(C)N1[O] (stereo not drawn)	0%
Cc1c(C)c2c(c(C)c1OC(=O)CCC(=O)NC1CC(C)(C)N([O])C(C)(C)C1)CC[C@@](C)(CCC[C@H](C)CCC[C@H](C)CCCC(C)C)O2	30%

System: not listed separately
Experiment: Cytotoxicity against human HepG2 cells assessed as reduction in cell viability after 72 hrs by MTT assay
Format: functional, cell-based
Conditions: HepG2, 72 h

SMILES	IC50
CC1(C)CC(CNC(=O)CCC(=O)O)C(C)(C)N1[O] (stereo not drawn)	> 300 µM
Cc1c(C)c2c(c(C)c1OC(=O)CCC(=O)NC1CC(C)(C)N([O])C(C)(C)C1)CC[C@@](C)(CCC[C@H](C)CCC[C@H](C)CCCC(C)C)O2	> 300 µM

System: not listed separately
Experiment: Ratio of IC50 for human CEM13 cells to concentration causing antioxidant activity in Salmonella typhimurium TA102 harboring […] mutant
Format: functional
Conditions: not given

SMILES	Ratio
CC1(C)CC(CNC(=O)CCC(=O)O)C(C)(C)N1[O] (stereo not drawn)	100 - 1000
Cc1c(C)c2c(c(C)c1OC(=O)CCC(=O)NC1CC(C)(C)N([O])C(C)(C)C1)CC[C@@](C)(CCC[C@H](C)CCC[C@H](C)CCCC(C)C)O2	100 - 1000

System: not listed separately
Experiment: Cytotoxicity against human MCF7 cells assessed as reduction in cell viability after 72 hrs by MTT assay
Format: functional, cell-based
Conditions: MCF7, 72 h

SMILES	IC50
CC1(C)CC(CNC(=O)CCC(=O)O)C(C)(C)N1[O] (stereo not drawn)	> 300 µM
Cc1c(C)c2c(c(C)c1OC(=O)CCC(=O)NC1CC(C)(C)N([O])C(C)(C)C1)CC[C@@](C)(CCC[C@H](C)CCC[C@H](C)CCCC(C)C)O2	> 300 µM

System: not listed separately
Experiment: Cytotoxicity against human MCF7 cells assessed as reduction in cell viability at 300 uM after 72 hrs by MTT assay
Format: functional
Conditions: MCF7, 72 h

SMILES	inhibition at 300 µM
CC1(C)CC(CNC(=O)CCC(=O)O)C(C)(C)N1[O] (stereo not drawn)	24%
Cc1c(C)c2c(c(C)c1OC(=O)CCC(=O)NC1CC(C)(C)N([O])C(C)(C)C1)CC[C@@](C)(CCC[C@H](C)CCC[C@H](C)CCCC(C)C)O2	28%

System: not listed separately
Experiment: Cytotoxicity against human CEM13 cells assessed as reduction in cell viability after 72 hrs by MTT assay
Format: functional, cell-based
Conditions: CEM13, 72 h

SMILES	IC50
CC1(C)CC(CNC(=O)CCC(=O)O)C(C)(C)N1[O] (stereo not drawn)	> 400 µM
Cc1c(C)c2c(c(C)c1OC(=O)CCC(=O)NC1CC(C)(C)N([O])C(C)(C)C1)CC[C@@](C)(CCC[C@H](C)CCC[C@H](C)CCCC(C)C)O2	146 µM

System: not listed separately
Experiment: Ratio of IC50 for human MCF7 cells to concentration causing antioxidant activity in Salmonella typhimurium TA102 harboring […] mutant
Format: functional
Conditions: not given

SMILES	Ratio
CC1(C)CC(CNC(=O)CCC(=O)O)C(C)(C)N1[O] (stereo not drawn)	100 - 1000
Cc1c(C)c2c(c(C)c1OC(=O)CCC(=O)NC1CC(C)(C)N([O])C(C)(C)C1)CC[C@@](C)(CCC[C@H](C)CCC[C@H](C)CCCC(C)C)O2	100 - 1000

System: not listed separately
Experiment: Cytotoxicity against human MT4 cells assessed as reduction in cell viability after 72 hrs by MTT assay
Format: functional, cell-based
Conditions: MT4, 72 h

SMILES	IC50
CC1(C)CC(CNC(=O)CCC(=O)O)C(C)(C)N1[O] (stereo not drawn)	> 400 µM
Cc1c(C)c2c(c(C)c1OC(=O)CCC(=O)NC1CC(C)(C)N([O])C(C)(C)C1)CC[C@@](C)(CCC[C@H](C)CCC[C@H](C)CCCC(C)C)O2	53 µM

System: Salmonella enterica subsp. enterica serovar Typhimurium
Experiment: Antioxidant activity in Salmonella typhimurium TA102 harboring […] mutant assessed as inhibition of t-BuO2H-dependant mutant formation at 30 uM preincubated with compound followed by t-BuO2H addition after 48 hrs by Ames test
Format: functional
Conditions: not given

SMILES	inhibition
CC1(C)CC(CNC(=O)CCC(=O)O)C(C)(C)N1[O] (stereo not drawn)	11%
Cc1c(C)c2c(c(C)c1OC(=O)CCC(=O)NC1CC(C)(C)N([O])C(C)(C)C1)CC[C@@](C)(CCC[C@H](C)CCC[C@H](C)CCCC(C)C)O2	20%

System: not listed separately
Experiment: Cytotoxicity against human RPMI8226 cells assessed as reduction in cell viability after 72 hrs by MTT assay
Format: functional, cell-based
Conditions: RPMI-8226, 72 h

SMILES	IC50
CC1(C)CC(CNC(=O)CCC(=O)O)C(C)(C)N1[O] (stereo not drawn)	> 300 µM
Cc1c(C)c2c(c(C)c1OC(=O)CCC(=O)NC1CC(C)(C)N([O])C(C)(C)C1)CC[C@@](C)(CCC[C@H](C)CCC[C@H](C)CCCC(C)C)O2	> 300 µM

System: not listed separately
Experiment: Genotoxicity in Escherichia coli PQ37 expressing lacZ gene assessed as ratio of inducible beta-galactosidase activity to alkaline phosphatase activity at 30 mM after 2 hrs by SOS-chromotest relative to control
Format: toxicity
Conditions: Escherichia coli PQ37 cells expressing lacZ gene, read-out: FC

SMILES	fold induction at 2 h, 30000 µM
Cc1c(C)c2c(c(C)c1OC(=O)CCC(=O)NC1CC(C)(C)N([O])C(C)(C)C1)CC[C@@](C)(CCC[C@H](C)CCC[C@H](C)CCCC(C)C)O2	1.1

System: Salmonella enterica subsp. enterica serovar Typhimurium
Experiment: Antioxidant activity in Salmonella typhimurium TA102 harboring […] mutant assessed as inhibition of t-BuO2H-dependant mutant formation at 3 uM preincubated with compound followed by t-BuO2H addition after 48 hrs by Ames test
Format: functional
Conditions: not given

SMILES	inhibition
CC1(C)CC(CNC(=O)CCC(=O)O)C(C)(C)N1[O] (stereo not drawn)	21%
Cc1c(C)c2c(c(C)c1OC(=O)CCC(=O)NC1CC(C)(C)N([O])C(C)(C)C1)CC[C@@](C)(CCC[C@H](C)CCC[C@H](C)CCCC(C)C)O2	29%

System: not listed separately
Experiment: Cytotoxicity against human U937 cells assessed as reduction in cell viability after 72 hrs by MTT assay
Format: functional, cell-based
Conditions: U-937, 72 h

SMILES	IC50
CC1(C)CC(CNC(=O)CCC(=O)O)C(C)(C)N1[O] (stereo not drawn)	282 µM
Cc1c(C)c2c(c(C)c1OC(=O)CCC(=O)NC1CC(C)(C)N([O])C(C)(C)C1)CC[C@@](C)(CCC[C@H](C)CCC[C@H](C)CCCC(C)C)O2	76 µM

System: not listed separately
Experiment: Genotoxicity in Escherichia coli PQ37 expressing lacZ gene assessed as ratio of inducible beta-galactosidase activity to alkaline phosphatase activity at 3 mM after 2 hrs by SOS-chromotest relative to control
Format: toxicity
Conditions: Escherichia coli PQ37 cells expressing lacZ gene, read-out: FC

SMILES	fold induction at 2 h, 3000 µM
CC1(C)CC(CNC(=O)CCC(=O)O)C(C)(C)N1[O] (stereo not drawn)	1.3

System: Salmonella typhimurium
Experiment: Genotoxicity in Salmonella typhimurium TA102 harboring […] mutant assessed as frequency of reversion from histidine auxotrophy to prototrophy at 30 mM after 48 hrs by Ames test (reference value: 209 +/- 10 No _unit)
Format: toxicity, organism-based
Conditions: salmonella enterica subsp. enterica serovar typhimurium, 30000 µM

SMILES	Activity
CC1(C)CC(CNC(=O)CCC(=O)O)C(C)(C)N1[O] (stereo not drawn)	219
Cc1c(C)c2c(c(C)c1OC(=O)CCC(=O)NC1CC(C)(C)N([O])C(C)(C)C1)CC[C@@](C)(CCC[C@H](C)CCC[C@H](C)CCCC(C)C)O2	222

System: not listed separately
Experiment: Ratio of IC50 for human HEPG2 cells to concentration causing antioxidant activity in Salmonella typhimurium TA102 harboring […] mutant
Format: functional
Conditions: not given

SMILES	Ratio
CC1(C)CC(CNC(=O)CCC(=O)O)C(C)(C)N1[O] (stereo not drawn)	100 - 1000
Cc1c(C)c2c(c(C)c1OC(=O)CCC(=O)NC1CC(C)(C)N([O])C(C)(C)C1)CC[C@@](C)(CCC[C@H](C)CCC[C@H](C)CCCC(C)C)O2	100 - 1000

System: not listed separately
Experiment: Ratio of IC50 for human MT4 cells to concentration causing antioxidant activity in Salmonella typhimurium TA102 harboring […] mutant
Format: functional
Conditions: not given

SMILES	Ratio
CC1(C)CC(CNC(=O)CCC(=O)O)C(C)(C)N1[O] (stereo not drawn)	100 - 1000
Cc1c(C)c2c(c(C)c1OC(=O)CCC(=O)NC1CC(C)(C)N([O])C(C)(C)C1)CC[C@@](C)(CCC[C@H](C)CCC[C@H](C)CCCC(C)C)O2	100 - 1000

System: not listed separately
Experiment: Ratio of IC50 for human RPMI8226 cells to concentration causing antioxidant activity in Salmonella typhimurium TA102 harboring […] mutant
Format: functional, RPMI-8226
Conditions: not given

SMILES	Ratio
CC1(C)CC(CNC(=O)CCC(=O)O)C(C)(C)N1[O] (stereo not drawn)	100 - 1000
Cc1c(C)c2c(c(C)c1OC(=O)CCC(=O)NC1CC(C)(C)N([O])C(C)(C)C1)CC[C@@](C)(CCC[C@H](C)CCC[C@H](C)CCCC(C)C)O2	100 - 1000

System: not listed separately
Experiment: Cytotoxicity against hamster AG17-1 cells assessed as reduction in cell viability after 72 hrs by MTT assay
Format: toxicity, cell-based, Cricetulus griseus
Conditions: Chinese hamster

SMILES	IC50 at 72 h
CC1(C)CC(CNC(=O)CCC(=O)O)C(C)(C)N1[O] (stereo not drawn)	> 300 µM
Cc1c(C)c2c(c(C)c1OC(=O)CCC(=O)NC1CC(C)(C)N([O])C(C)(C)C1)CC[C@@](C)(CCC[C@H](C)CCC[C@H](C)CCCC(C)C)O2	> 300 µM

System: not listed separately
Experiment: Cytotoxicity against human RPMI8226 cells assessed as reduction in cell viability at 300 uM after 72 hrs by MTT assay
Format: functional
Conditions: RPMI-8226, 72 h

SMILES	inhibition at 300 µM
CC1(C)CC(CNC(=O)CCC(=O)O)C(C)(C)N1[O] (stereo not drawn)	13%
Cc1c(C)c2c(c(C)c1OC(=O)CCC(=O)NC1CC(C)(C)N([O])C(C)(C)C1)CC[C@@](C)(CCC[C@H](C)CCC[C@H](C)CCCC(C)C)O2	13%

System: not listed separately
Experiment: Cytotoxicity against human HepG2 cells assessed as reduction in cell viability at 300 uM after 72 hrs by MTT assay
Format: functional
Conditions: HepG2, 72 h

SMILES	inhibition at 300 µM
CC1(C)CC(CNC(=O)CCC(=O)O)C(C)(C)N1[O] (stereo not drawn)	0%
Cc1c(C)c2c(c(C)c1OC(=O)CCC(=O)NC1CC(C)(C)N([O])C(C)(C)C1)CC[C@@](C)(CCC[C@H](C)CCC[C@H](C)CCCC(C)C)O2	5%

System: not listed separately
Experiment: Cytotoxicity against mouse LMTK cells assessed as reduction in cell viability at 300 uM after 72 hrs by MTT assay
Format: toxicity
Conditions: read-out: INH

SMILES	cytotoxicity at 72 h, 300 µM
CC1(C)CC(CNC(=O)CCC(=O)O)C(C)(C)N1[O] (stereo not drawn)	0%
Cc1c(C)c2c(c(C)c1OC(=O)CCC(=O)NC1CC(C)(C)N([O])C(C)(C)C1)CC[C@@](C)(CCC[C@H](C)CCC[C@H](C)CCCC(C)C)O2	19%

System: not listed separately
Experiment: Cytotoxicity against mouse LMTK cells assessed as reduction in cell viability after 72 hrs by MTT assay
Format: toxicity
Conditions: not given

SMILES	IC50 at 72 h
CC1(C)CC(CNC(=O)CCC(=O)O)C(C)(C)N1[O] (stereo not drawn)	> 300 µM
Cc1c(C)c2c(c(C)c1OC(=O)CCC(=O)NC1CC(C)(C)N([O])C(C)(C)C1)CC[C@@](C)(CCC[C@H](C)CCC[C@H](C)CCCC(C)C)O2	> 300 µM

System: Salmonella enterica subsp. enterica serovar Typhimurium
Experiment: Antioxidant activity in Salmonella typhimurium TA102 harboring […] mutant assessed as inhibition of t-BuO2H-dependant mutant formation at 0.3 uM preincubated with compound followed by t-BuO2H addition after 48 hrs by Ames test
Format: functional
Conditions: not given

SMILES	inhibition
CC1(C)CC(CNC(=O)CCC(=O)O)C(C)(C)N1[O] (stereo not drawn)	15%
Cc1c(C)c2c(c(C)c1OC(=O)CCC(=O)NC1CC(C)(C)N([O])C(C)(C)C1)CC[C@@](C)(CCC[C@H](C)CCC[C@H](C)CCCC(C)C)O2	24%
